In patent US9758524B2, “4-imidazopyridazin-1-yl-benzamides as Btk inhibitors” (Merck Sharp & Dohme B.V., priority 2011, dated 2017):
Like-named read-outs stand apart in the source and are kept apart here.

Columns and labels:
[1] = target: FynT enzyme (Homo sapiens (Human), UniProt P06241); test: FynT enzyme activity (IMAP fluorescence polarization assay); assay type: biochemical; conditions: 60 min pre-incubation, 0.2 μM ATP
Protocol: FynT enzyme activity is measured using the IMAP (immobilized metal ion affinity-based fluorescence polarization) assay as outlined below.
Test compounds and FynT enzyme are pre-incubated 60 minutes at room temperature, before adding 5 μL/well of 400 nM Fluorescin labeled substrate peptide (p34cdc2 substrate peptide, e.g. #R7157/#R7172, Molecular Devices) in KR-buffer. Final peptide substrate concentration in assay is 100 nM. […] Following incubation for 2 h at room temperature the enzyme reaction is stopped by adding 40 μL/well IMAP Progressive Binding Solution (according to suppliers (Molecular Devices) protocol using 75% 1× buffer A and 25% 1× buffer B with 1:600 Progressive Binding Solution). After 60 min incubation at room temperature in the dark the FP signal is read. […] Values are calculated as percentage of the difference in readout (ΔmPi) of the controls with and without ATP. EC50 values are determined by curve fitting of the experimental results using Activity Base.

[2] = target: Btk enzyme (His-Btk) (Homo sapiens (Human), UniProt Q06187); test: Btk enzyme activity (IMAP fluorescence polarization assay)
Btk enzyme (His-Btk), sequence (Q06187 whole entry): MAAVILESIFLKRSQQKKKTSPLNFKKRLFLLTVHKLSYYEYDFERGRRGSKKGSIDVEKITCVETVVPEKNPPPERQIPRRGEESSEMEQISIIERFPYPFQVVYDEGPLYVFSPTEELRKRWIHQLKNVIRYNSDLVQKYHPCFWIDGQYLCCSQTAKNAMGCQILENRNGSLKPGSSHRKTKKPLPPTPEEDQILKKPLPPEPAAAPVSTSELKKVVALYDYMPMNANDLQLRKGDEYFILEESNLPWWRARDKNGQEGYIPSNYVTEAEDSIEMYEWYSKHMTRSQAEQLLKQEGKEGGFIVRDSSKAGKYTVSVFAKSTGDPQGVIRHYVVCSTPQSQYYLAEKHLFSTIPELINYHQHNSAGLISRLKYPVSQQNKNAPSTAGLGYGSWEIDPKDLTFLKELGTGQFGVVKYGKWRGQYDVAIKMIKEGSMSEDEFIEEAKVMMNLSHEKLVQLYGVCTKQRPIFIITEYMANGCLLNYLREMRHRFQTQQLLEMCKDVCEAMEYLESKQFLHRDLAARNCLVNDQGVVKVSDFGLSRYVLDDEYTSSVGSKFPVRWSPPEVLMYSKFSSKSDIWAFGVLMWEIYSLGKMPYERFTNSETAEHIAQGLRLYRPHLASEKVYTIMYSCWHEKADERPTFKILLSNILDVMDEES

[3] = target: Lck enzyme (Homo sapiens (Human), UniProt P06239); test: Lck enzyme activity (IMAP fluorescence polarization assay); conditions: read-out: EC50 Lck activity values; IMAP, 60 min pre-incubation, 6 μM ATP; bin bound in μM
Lck enzyme, sequence (P06239 whole entry): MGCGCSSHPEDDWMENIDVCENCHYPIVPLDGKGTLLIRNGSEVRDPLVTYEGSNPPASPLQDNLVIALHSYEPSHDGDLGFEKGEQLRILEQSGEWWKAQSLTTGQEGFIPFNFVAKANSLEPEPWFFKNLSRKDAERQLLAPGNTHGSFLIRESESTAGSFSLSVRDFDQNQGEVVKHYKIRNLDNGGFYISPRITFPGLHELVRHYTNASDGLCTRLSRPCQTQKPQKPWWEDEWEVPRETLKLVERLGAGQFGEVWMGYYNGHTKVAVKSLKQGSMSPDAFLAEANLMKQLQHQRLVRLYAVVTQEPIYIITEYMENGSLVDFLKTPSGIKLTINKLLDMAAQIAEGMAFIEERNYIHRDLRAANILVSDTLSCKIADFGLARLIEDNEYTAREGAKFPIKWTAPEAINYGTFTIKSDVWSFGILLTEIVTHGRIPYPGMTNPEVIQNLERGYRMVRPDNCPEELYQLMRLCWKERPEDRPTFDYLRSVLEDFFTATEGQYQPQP

[4] = target: Src enzyme (Homo sapiens (Human), UniProt P12931); test: Src enzyme activity (IMAP fluorescence polarization assay); conditions: read-out: EC50 Src activity values; IMAP, 60 min pre-incubation, 4 μM ATP
Src enzyme, sequence (P12931 whole entry, looked up): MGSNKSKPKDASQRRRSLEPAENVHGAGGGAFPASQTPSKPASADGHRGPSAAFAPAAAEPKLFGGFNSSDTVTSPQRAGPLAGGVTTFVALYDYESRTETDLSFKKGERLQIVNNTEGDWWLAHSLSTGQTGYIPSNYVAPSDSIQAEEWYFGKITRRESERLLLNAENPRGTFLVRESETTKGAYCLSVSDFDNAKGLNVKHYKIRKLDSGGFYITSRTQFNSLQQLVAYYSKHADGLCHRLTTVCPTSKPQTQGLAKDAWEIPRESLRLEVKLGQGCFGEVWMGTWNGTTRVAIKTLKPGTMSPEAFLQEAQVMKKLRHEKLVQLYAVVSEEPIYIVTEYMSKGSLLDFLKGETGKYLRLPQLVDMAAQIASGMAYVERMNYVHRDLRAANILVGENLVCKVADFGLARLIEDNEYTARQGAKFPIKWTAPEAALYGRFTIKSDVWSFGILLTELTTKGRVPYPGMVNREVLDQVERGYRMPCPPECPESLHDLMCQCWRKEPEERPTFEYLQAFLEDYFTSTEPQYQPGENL

[5] = target: Lyn enzyme (Homo sapiens (Human), UniProt P07948); test: Lyn enzyme activity (IMAP fluorescence polarization assay); conditions: read-out: EC50 Lyn activity values, 60 min pre-incubation, 2 μM ATP, bin bound in μM
Lyn enzyme, sequence (P07948 whole entry): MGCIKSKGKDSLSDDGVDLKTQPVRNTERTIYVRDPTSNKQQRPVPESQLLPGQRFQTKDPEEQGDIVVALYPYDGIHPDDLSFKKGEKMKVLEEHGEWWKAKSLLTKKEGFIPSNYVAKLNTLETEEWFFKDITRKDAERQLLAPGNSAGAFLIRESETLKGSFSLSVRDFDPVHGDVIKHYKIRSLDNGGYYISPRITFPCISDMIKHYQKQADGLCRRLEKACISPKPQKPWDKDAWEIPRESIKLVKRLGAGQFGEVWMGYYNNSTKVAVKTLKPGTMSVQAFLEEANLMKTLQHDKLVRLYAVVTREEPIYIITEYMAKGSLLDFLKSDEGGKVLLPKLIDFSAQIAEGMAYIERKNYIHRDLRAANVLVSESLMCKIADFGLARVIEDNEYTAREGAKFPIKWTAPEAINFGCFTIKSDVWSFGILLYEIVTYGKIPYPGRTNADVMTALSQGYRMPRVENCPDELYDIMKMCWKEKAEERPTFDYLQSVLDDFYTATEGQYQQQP

[6] = read-out: EC50 Btk activity values, IMAP, 60 min pre-incubation, 5 μM ATP, bin bound in nM
[7] = IMAP, 60 min pre-incubation, 5 μM ATP, bin bound in nM

FynT enzyme, sequence (P06241 other isoform, or with tags, fused parts or gaps): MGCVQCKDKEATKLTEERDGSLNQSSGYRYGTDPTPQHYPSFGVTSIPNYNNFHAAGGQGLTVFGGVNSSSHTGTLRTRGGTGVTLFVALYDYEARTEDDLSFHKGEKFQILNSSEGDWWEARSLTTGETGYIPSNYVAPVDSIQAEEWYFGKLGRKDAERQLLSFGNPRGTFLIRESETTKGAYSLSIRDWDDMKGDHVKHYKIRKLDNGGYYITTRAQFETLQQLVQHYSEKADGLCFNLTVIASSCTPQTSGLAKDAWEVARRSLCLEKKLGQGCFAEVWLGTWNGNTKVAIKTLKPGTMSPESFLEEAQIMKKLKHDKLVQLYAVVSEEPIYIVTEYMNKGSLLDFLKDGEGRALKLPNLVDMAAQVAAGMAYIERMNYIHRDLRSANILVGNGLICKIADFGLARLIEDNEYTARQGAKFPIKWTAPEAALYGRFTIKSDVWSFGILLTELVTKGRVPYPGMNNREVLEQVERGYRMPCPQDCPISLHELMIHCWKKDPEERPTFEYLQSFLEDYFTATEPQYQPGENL

EC50 [1]	EC50 [2, 6]	EC50 [3]	EC50 [4]	EC50 [5]	EC50 [2]	EC50 Btk activity values [2, 7]	Compound
≥ 1000 nM	< 10 nM	≥ 1 µM	≥ 1000 nM	≥ 1 µM			CC#CC(=O)N1CCCC[C@H]1c1nc(-c2ccc(C(=O)Nc3ccncn3)cc2)c2c(N)nccn12 [Example 22, (S)-4-(8-Amino-3-(1-but-2-ynoylpiperidin-2-yl)imidazo[1,5-a]pyrazin-1-yl)-N-(pyrimidin-4-yl)benzamide]
≥ 1000 nM	< 10 nM	≥ 1 µM	≥ 1000 nM	≥ 1 µM			C=CC(=O)N1CCCC[C@H]1c1nc(-c2ccc(C(=O)Nc3cc(CCC)ccn3)c(F)c2)c2c(N)nccn12 [Example 26, (S)-4-(3-(1-Acryloylpiperidin-2-yl)-8-aminoimidazo[1,5-a]pyrazin-1-yl)-2-fluoro-N-(4-propylpyridin-2-yl)benzamide]
≥ 1000 nM	< 10 nM	≥ 1 µM	≥ 1000 nM	≥ 1 µM			CC#CC(=O)N1CCCC[C@H]1c1nc(-c2ccc(C(=O)Nc3ccccn3)cc2C)c2c(N)nccn12 [Example 28, 4-(8-Amino-3-((S)-1-but-2-ynoylpiperidin-2-yl)imidazo[1,5-a]pyrazin-1-yl)-3-methyl-N-(pyridin-2-yl)benzamide]
≥ 1000 nM	< 10 nM	≥ 1 µM	≥ 1000 nM	≥ 1 µM			C=CC(=O)NCc1nc(-c2ccc(C(=O)Nc3ccccn3)cc2)c2c(N)nccn12 [Example 29, 4-(3-(Acrylamidomethyl)-8-aminoimidazo[1,5-a]pyrazin-1-yl)-N-(pyridin-2-yl)benzamide]
≥ 1000 nM	< 10 nM	≥ 1 µM	≥ 1000 nM	≥ 1 µM			CC#CC(=O)N[C@@H](C)c1nc(-c2ccc(C(=O)Nc3ccccn3)cc2)c2c(N)nccn12 [Example 30, (S)-4-(8-Amino-3-(1-but-2-ynamidoethyl)imidazo[1,5-a]pyrazin-1-yl)-N-(pyridin-2-yl)benzamide]
≥ 1000 nM	< 10 nM	≥ 1 µM	≥ 1000 nM	≥ 1 µM			CCC#CC(=O)N1CCC[C@H]1c1nc(-c2ccc(C(=O)Nc3ccccn3)cc2)c2c(N)nccn12 [Example 34, (S)-4-(8-Amino-3-(1-pent-2-ynoylpyrrolidin-2-yl)imidazo[1,5-a]pyrazin-1-yl)-N-(pyridin-2-yl)benzamide]
≥ 1000 nM	< 10 nM	≥ 1 µM	≥ 1000 nM	≥ 1 µM			C=CC(=O)N1CCCCCC1c1nc(-c2ccc(C(=O)Nc3ccccn3)cc2)c2c(N)nccn12 (centres unmarked) [Example 37, 4-(3-(1-Acrloylazepan-2-yl)-8-aminoimidazo[1,5-a]pyrazin-1-yl)-N-(pyridin-2-yl)benzamide]
≥ 1000 nM	< 10 nM	≥ 1 µM	≥ 1000 nM	≥ 1 µM			CC#CC(=O)N(C)[C@@H](C)c1nc(-c2ccc(C(=O)Nc3cc(C(F)(F)F)ccn3)cc2)c2c(N)nccn12 [Example 39, (S)-4-(8-amino-3-(1-(N-methylbut-2-ynamido)ethyl)imidazo[1,5-a]pyrazin-1-yl)-N-(4-(trifluoromethyl)pyridin-2-yl)benzamide]

Second part, the compound before the results:

Compound	EC50 [1]	EC50 [2, 6]	EC50 [3]	EC50 [4]	EC50 [5]	EC50 [2]	EC50 Btk activity values [2, 7]
C=CC(=O)N1CCCC[C@H]1c1nc(-c2ccc(C(=O)Nc3ncccn3)cc2)c2c(N)nccn12 [Example 20, (S)-4-(3-(1-Acryloylpiperidin-2-yl)-8-aminoimidazo[1,5-a]pyrazin-1-yl)-N-(pyrimidin-2-yl)benzamide]	≥ 1000 nM	< 10 nM	≥ 1 µM	≥ 1000 nM	≥ 1 µM		
C=CC(=O)N1CCCC[C@H]1c1nc(-c2ccc(C(=O)Nc3nccc(C)n3)cc2)c2c(N)nccn12 [Example 21, (S)-4-(3-(1-Acryloylpiperidin-2-yl)-8-aminoimidazo[1,5-a]pyrazin-1-yl)-N-(4-methylpyrimidin-2-yl)benzamide]	≥ 1000 nM	< 10 nM	≥ 1 µM	≥ 1000 nM	≥ 1 µM		
CC#CC(=O)N1CCCC[C@H]1c1nc(-c2ccc(C(=O)Nc3cccnn3)cc2)c2c(N)nccn12 [Example 23, (S)-4-(8-Amino-3-(1-but-2-ynoylpiperidin-2-yl)imidazo[1,5-a]pyrazin-1-yl)-N-(pyridazin-3-yl)benzamide]	≥ 1000 nM	< 10 nM	≥ 1 µM	≥ 1000 nM	≥ 1 µM		
CC#CC(=O)N1CCCC[C@H]1c1nc(-c2ccc(C(=O)Nc3ccon3)cc2)c2c(N)nccn12 [Example 24, (S)-4-(8-Amino-3-(1-but-2-ynoylpiperidin-2-yl)imidazo[1,5-a]pyrazin-1-yl)-N-(isoxazol-3-yl)benzamide]	≥ 1000 nM		≥ 1 µM	≥ 1000 nM	≥ 1 µM	10 to 100 nM	<100 nM
CCc1cnc(NC(=O)c2ccc(-c3nc([C@@H]4CCCCN4C(=O)/C=C/COC)n4ccnc(N)c34)cc2)s1 [Example 25, (S,E)-4-(8-Amino-3-(1-(4-methoxybut-2-enoyl)piperidin-2-yl)imidazo[1,5-a]pyrazin-1-yl)-N-(5-ethylthiazol-2-yl)benzamide]	≥ 1000 nM	< 10 nM	≥ 1 µM	≥ 1000 nM	≥ 1 µM		
CCCc1ccnc(NC(=O)c2ccc(-c3nc([C@@H]4CCCCN4C(=O)/C=C/CN(C)C)n4ccnc(N)c34)cc2OC)c1 [Example 27, (S,E)-4-(8-Amino-3-(1-(4-(dimethylamino)but-2-enoyl)piperidin-2-yl)imidazo[1,5-a]pyrazin-1-yl)-2-methoxy-N-(4-propylpyridin-2-yl)benzamide]	≥ 1000 nM	< 10 nM	≥ 1 µM	≥ 1000 nM	≥ 1 µM		
CC(=O)SCC(=O)N1CCC[C@H]1c1nc(-c2ccc(C(=O)Nc3ccccn3)cc2)c2c(N)nccn12 [Example 31, (S)—S-2-(2-(8-Amino-1-(4-(pyridin-2-ylcarbamoyl)phenyl)imidazo[1,5-a]pyrazin-3-yl)pyrrolidin-1-yl)-2-oxoethyl ethanethioate]	≥ 1000 nM	< 10 nM	≥ 1 µM	≥ 1000 nM	≥ 1 µM		
CC(C)(O)C#CC(=O)N1CCC[C@H]1c1nc(-c2ccc(C(=O)Nc3ccccn3)cc2)c2c(N)nccn12 [Example 32, (S)-4-(8-Amino-3-(1-(4-hydroxy-4-methylpent-2-ynoyl)pyrrolidin-2-yl)imidazo[1,5-a]pyrazin-1-yl)-N-(pyridin-2-yl)benzamide]	≥ 1000 nM	< 10 nM	≥ 1 µM	≥ 1000 nM	≥ 1 µM		
Nc1nccn2c([C@@H]3CCCN3C(=O)c3cc(Cl)ncn3)nc(-c3ccc(C(=O)Nc4ccccn4)cc3)c12 [Example 33, (S)-4-(8-Amino-3-(1-(6-chloropyrimidine-4-carbonyl)pyrrolidin-2-yl)imidazo[1,5-a]pyrazin-1-yl)-N-(pyridin-2-yl)benzamide]	≥ 1000 nM	< 10 nM	≥ 1 µM	≥ 1000 nM	≥ 1 µM		
Nc1nccn2c([C@@H]3CCCN3C(=O)C#CC3CC3)nc(-c3ccc(C(=O)Nc4ccccn4)cc3)c12 [Example 35, (S)-4-(8-Amino-3-(1-(3-cyclopropylpropioloyl)pyrrolidin-2-yl)imidazo[1,5-a]pyrazin-1-yl)-N-(pyridin-2-yl)benzamide]	≥ 1000 nM	< 10 nM	≥ 1 µM	≥ 1000 nM	≥ 1 µM		
CCCC#CC(=O)N1CCC[C@H]1c1nc(-c2ccc(C(=O)Nc3ccccn3)cc2)c2c(N)nccn12 [Example 36, (S)-4-(8-Amino-3-(1-hex-2-ynoylpyrrolidin-2-yl)imidazo[1,5-a]pyrazin-1-yl)-N-(pyridin-2-yl)benzamide]	≥ 1000 nM	< 10 nM	≥ 1 µM	≥ 1000 nM	≥ 1 µM		
CC#CC(=O)N1CCOC[C@H]1c1nc(-c2ccc(C(=O)Nc3ccccn3)cc2)c2c(N)nccn12 [Example 38, (R)-4-(8-Amino-3-(4-but-2-ynoylmorpholin-3-yl)imidazo[1,5-a]pyrazin-1-yl)-N-(pyridin-2-yl)benzamide]	≥ 1000 nM	< 10 nM	≥ 1 µM	≥ 1000 nM	≥ 1 µM		
CN(C)CC#CC(=O)N1CCC[C@H]1c1nc(-c2ccc(C(=O)Nc3ccccn3)cc2)c2c(N)nccn12 [Example 40, (S)-4-(8-Amino-3-(1-(4-(dimethylamino)but-2-ynoyl)pyrrolidin-2-yl)imidazo[1,5-a]pyrazin-1-yl)-N-(pyridin-2-yl)benzamide]	≥ 1000 nM		≥ 1 µM	≥ 1000 nM	≥ 1 µM	10 to 100 nM	<100 nM
